This passage reports IC50 results from patent US12503471B2, “Triazatricycle compounds for the treatment of autoimmune disease” (Hoffmann-La Roche Inc., priority 2019, dated 2025).

Bounds are passed on as bounds.

In the test the target is T1, human TLR8 (Homo sapiens, UniProt Q9NR97).
T1 construct: host or cells: HEK293 (HEK-Blue hTLR8)
T1 sequence (Q9NR97 27-1041): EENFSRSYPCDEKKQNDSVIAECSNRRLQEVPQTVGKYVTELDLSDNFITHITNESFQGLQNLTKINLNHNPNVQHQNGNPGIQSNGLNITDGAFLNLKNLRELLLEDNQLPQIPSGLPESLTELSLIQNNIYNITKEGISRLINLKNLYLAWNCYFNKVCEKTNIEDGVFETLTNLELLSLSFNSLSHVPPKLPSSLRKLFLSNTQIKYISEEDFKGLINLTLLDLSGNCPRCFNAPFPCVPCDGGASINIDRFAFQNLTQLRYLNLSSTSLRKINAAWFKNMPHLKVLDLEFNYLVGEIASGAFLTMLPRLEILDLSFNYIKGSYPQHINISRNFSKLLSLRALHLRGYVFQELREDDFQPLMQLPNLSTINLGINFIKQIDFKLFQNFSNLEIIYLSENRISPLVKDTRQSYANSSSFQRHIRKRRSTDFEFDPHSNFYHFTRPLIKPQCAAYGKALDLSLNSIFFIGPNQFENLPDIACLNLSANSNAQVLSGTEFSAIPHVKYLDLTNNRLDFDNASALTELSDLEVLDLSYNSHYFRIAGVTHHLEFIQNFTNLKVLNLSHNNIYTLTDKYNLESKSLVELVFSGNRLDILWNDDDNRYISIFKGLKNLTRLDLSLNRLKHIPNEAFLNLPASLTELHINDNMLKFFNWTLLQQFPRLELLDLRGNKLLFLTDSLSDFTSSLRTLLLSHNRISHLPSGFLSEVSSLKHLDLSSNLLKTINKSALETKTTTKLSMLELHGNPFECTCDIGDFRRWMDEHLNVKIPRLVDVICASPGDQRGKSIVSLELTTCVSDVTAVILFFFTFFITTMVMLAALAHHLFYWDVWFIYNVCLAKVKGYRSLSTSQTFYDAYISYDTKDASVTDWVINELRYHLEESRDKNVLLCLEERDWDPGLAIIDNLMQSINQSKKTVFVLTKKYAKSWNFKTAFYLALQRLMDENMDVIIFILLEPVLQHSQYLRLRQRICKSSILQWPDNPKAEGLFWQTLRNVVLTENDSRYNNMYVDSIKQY
Briefly: HEK293-Blue-hTLR-8 cells assay. It is filed as cell-based. As to conditions: HEK293-Blue-hTLR8 cells, R848 stimulation, 20 hrs, SEAP reporter; read-out: HEK/hTLR8 IC50. The source says: HEK293-Blue-hTLR-8 Cells Assay:
A stable HEK293-Blue-hTLR-8 cell line was purchased from InvivoGen (Cat. #: hkb-htlr8, San Diego, Calif., USA). These cells were originally designed for studying the stimulation of human TLR8 by monitoring the activation of NF-κB. A SEAP (secreted embryonic alkaline phosphatase) reporter gene was placed under the control of the IFN-β minimal promoter fused to five NF-κB and AP-1-binding sites. The SEAP was induced by activating NF-κB and AP-1 via stimulating HEK-Blue hTLR8 cells with TLR8 ligands. Therefore the reporter expression was declined by TLR8 antagonist under the stimulation of a ligand, such as R848, for incubation of 20 hrs. The cell culture supernatant SEAP reporter activity was determined using QUANTI-Blue™ kit (Cat. #: rep-qbl, Invivogen, San Diego, Ca, USA) at a wavelength of 640 nm, a detection medium that turns purple or blue in the presence of alkaline phosphatase.
HEK293-Blue-hTLR8 cells were incubated at a density of 250,000˜450,000 cells/mL in a volume of 170 μL in a 96-well plate in Dulbecco's Modified Eagle's medium (DMEM) containing 4.5 g/L glucose, 50 U/mL penicillin, […], […], 2 mM L-glutamine, 10% (v/v) heat-inactivated fetal bovine serum with addition of 20 μL test compound in a serial dilution in the presence of final DMSO at 1% and 10 μL of 60 uM R848 in above DMEM, perform incubation under 37° C. in a CO2 incubator for 20 hrs. Then 20 μL of the supernatant from each well was incubated with 180 μL Quanti-blue substrate solution at 37° C. for 2 hrs and the absorbance was read at 620-655 nm using a spectrophotometer. The signaling pathway that TLR8 activation leads to downstream NF-κB activation has been widely accepted, and therefore similar reporter assay was modified for evaluating TLR8 antagonist.
For the compound `[2H]c1ccc2c(N3C[C@@H](C)N4Cc5nc(O[C@H]6CCNC6)ccc5[C@H]4C3)ccc(C#N)c2n1` [Example 25, 2-Deuterio-5-[(2S,6R)-6-methyl-11-[(3S)-pyrrolidin-3-yl]oxy-4,7,10-triazatricyclo[7.4.0.02,7]trideca-1(9),10,12-trien-4-yl]quinoline-8-carbonitrile], the IC50 was under 0.3 nM.

With `[2H]c1ccc2c(N3C[C@@H](C)N4Cc5nc(N6CC[C@@H](OC)[C@H](N)C6)ccc5[C@H]4C3)ccc(C#N)c2n1` [Example 15, 5-[(2S,6R)-11-[(3R,4R)-3-amino-4-methoxy-1-piperidyl]-6-methyl-4,7,10-triazatricyclo[7.4.0.02,7]trideca-1(9),10,12-trien-4-yl]-2-deuterio-quinoline-8-carbonitrile], the IC50 is under 0.3 nM.

`[2H]c1ccc2c(N3C[C@@H](C)N4Cc5nc(N6CC[C@H]7CNC[C@H]76)ccc5[C@H]4C3)ccc(C#N)c2n1` [Example 10, 5-[(2S,6R)-11-[(3aS,6aS)-3,3a,4,5,6,6a-hexahydro-2H-pyrrolo[2,3-c]pyrrol-1-yl]-6-methyl-4,7,10-triazatricyclo[7.4.0.02,7]trideca-1(9),10,12-trien-4-yl]-2-deuterio-quinoline-8-carbonitrile]: the IC50 is under 0.3 nM.

Regarding `[2H]c1ccc2c(N3C[C@@H](C)N4Cc5nc(N6CC[C@@H](N)[C@H](OC)C6)ccc5[C@H]4C3)ccc(C#N)c2n1` [Example 11, 5-[(2S,6R)-11-[(3R,4R)-4-amino-3-methoxy-1-piperidyl]-6-methyl-4,7,10-triazatricyclo[7.4.0.02,7]trideca-1(9),10,12-trien-4-yl]-2-deuterio-quinoline-8-carbonitrile], the IC50 was under 0.3 nM.

With `[2H]c1ccc2c(N3C[C@@H](C)N4Cc5nc(N6CC[C@H](OC)[C@@H](N)C6)ccc5[C@H]4C3)ccc(C#N)c2n1` [Example 14, 5-[(2S,6R)-11-[(3S,4S)-3-amino-4-methoxy-1-piperidyl]-6-methyl-4,7,10-triazatricyclo[7.4.0.02,7]trideca-1(9),10,12-trien-4-yl]-2-deuterio-quinoline-8-carbonitrile], the IC50 was under 0.3 nM.
